Like-named read-outs stand apart in the source and are kept apart here.
Legend:
Type in all cases: biochemical
[1] = biological target: NDM-1 (New Delhi metallo-β-lactamase-1) (Klebsiella pneumoniae, UniProt C7C422); experiment: Enzyme inhibition assay, NDM-1
Protocol: (§1) The biological activity of the compounds of the present invention was tested using standard assay protocols.^7 The following representative enzymes NDM-1 (New Delhi metallo-β-lactamase-1), IMP-1 (Imipenemase-1) and VIM-2 (Veronese metallo-β-lactamase-2) were selected from different clinically relevant B1 metallo-β-lactamases.

[2] = biological target: VIM-2 (Veronese metallo-β-lactamase-2) (Escherichia coli, UniProt Q5U7L7); experiment: Enzyme inhibition assay, VIM-2
Protocol: as §1

IMP-1 (Imipenemase-1) = IMP-1 (Imipenemase-1) (Serratia marcescens, UniProt P52699); experiment: Enzyme inhibition assay, IMP-1
IMP-1 (Imipenemase-1), sequence (P52699 19-246, looked up, species assumed): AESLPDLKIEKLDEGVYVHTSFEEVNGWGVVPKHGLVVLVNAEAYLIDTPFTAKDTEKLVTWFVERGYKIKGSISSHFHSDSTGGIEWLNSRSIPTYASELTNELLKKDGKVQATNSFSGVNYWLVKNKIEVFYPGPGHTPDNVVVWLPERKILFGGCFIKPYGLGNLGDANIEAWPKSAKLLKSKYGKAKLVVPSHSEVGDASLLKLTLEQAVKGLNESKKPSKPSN
Protocol: as §1

[3] = read-out: pIC50 NDM-1 (converted)
[4] = read-out: pIC50 VIM-2 (converted)
[5] = read-out: pIC50 IMP-1 (converted)

NDM-1 (New Delhi metallo-β-lactamase-1), sequence (C7C422 29-270, looked up, species assumed): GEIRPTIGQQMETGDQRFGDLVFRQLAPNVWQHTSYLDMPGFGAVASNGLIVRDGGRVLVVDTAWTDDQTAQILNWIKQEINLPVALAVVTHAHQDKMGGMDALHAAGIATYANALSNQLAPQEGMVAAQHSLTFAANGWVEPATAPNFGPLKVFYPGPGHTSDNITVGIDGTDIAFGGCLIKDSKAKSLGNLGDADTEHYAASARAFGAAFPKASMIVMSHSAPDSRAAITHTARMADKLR

SMILES	IC50 [1, 3]	IC50 [2, 4]	IC50 (IMP-1 (Imipenemase-1); [5])	IC50 [1]	IC50 [2]	IC50 (IMP-1 (Imipenemase-1))
Cc1cccc2c(-c3cc(Cl)cc(Cl)c3)c(C(=O)O)[nH]c12 [Example 3, 3-(3,5-dichlorophenyl)-7-methyl-1H-indole-2-carboxylicacid]	39.8 nM	< 5.01 nM	5010 nM			
Cc1cccc2c(-c3ccc(N4CCOCC4)cc3)c(C(=O)O)[nH]c12 [Example 13, 7-methyl-3-(4-morpholinophenyl)-1H-indole-2-carboxylic acid]	12.6 nM	1580 nM	10000 nM			
Cc1cccc2c(-c3cccc([N+](=O)[O-])c3)c(C(=O)O)[nH]c12 [Example 15, 7-methyl-3-(3-nitrophenyl)-1H-indole-2-carboxylic acid]	25.1 nM	126 nM	15800 nM			
Cc1cccc2c(-c3cccc(S(C)(=O)=O)c3)c(C(=O)O)[nH]c12 [Example 16, 7-methyl-3-(3-(methylsulfonyl)phenyl)-1H-indole-2-carboxylic acid]	50.1 nM	794 nM	12600 nM			
Cc1cccc2c(-c3cccc(N(C)C)c3)c(C(=O)O)[nH]c12 [Example 17, 3-(3-(dimethylamino)phenyl)-7-methyl-1H-indole-2-carboxylic acid]	200 nM	501 nM	> 100000 nM			
Cc1cccc2c(-c3ccc4[nH]ncc4c3)c(C(=O)O)[nH]c12 [Example 19, 3-(1H-indazol-5-yl)-7-methyl-1H-indole-2-carboxylic acid]	31.6 nM	100 nM	5010 nM			
COc1ccccc1-c1c(C(=O)O)[nH]c2c(C)cccc12 [Example 20, 3-(2-methoxyphenyl)-7-methyl-1H-indole-2-carboxylic acid]	126 nM	200 nM	79400 nM			
Cc1cccc2c(-c3ccn4ncnc4c3)c(C(=O)O)[nH]c12 [Example 21, 3-([1,2,4]triazolo[1,5-a]pyridin-7-yl)-7-methyl-1H-indole-2-carboxylic acid]	126 nM	126 nM	> 100000 nM			
Cc1cccc2c(-c3cncnc3)c(C(=O)O)[nH]c12 [Example 22, 7-methyl-3-(pyrimidin-5-yl)-1H-indole-2-carboxylic acid]	126 nM	1260 nM	> 100000 nM			
Cc1cccc2c(-c3cccnc3)c(C(=O)O)[nH]c12 [Example 24, 7-methyl-3-(pyridin-3-yl)-1H-indole-2-carboxylic acid]	100 nM	631 nM	12600 nM			
Cc1cccc2c(C3=CCN(C(=O)OC(C)(C)C)CC3)c(C(=O)O)[nH]c12 [Example 25, 3-(1-(tert-butoxycarbonyl)-1,2,3,6-tetrahydropyridin-4-yl)-7-methyl-1H-indole-2-carboxylic acid]	31.6 nM	2000 nM	5010 nM			
Cc1cccc2c(-c3cnn(C)c3)c(C(=O)O)[nH]c12 [Example 26, 7-methyl-3-(1-methyl-1H-pyrazol-4-yl)-1H-indole-2-carboxylic acid]	100 nM	2510 nM	39800 nM			
Cc1cccc2c(-c3cccc4[nH]ncc34)c(C(=O)O)[nH]c12 [Example 31, 3-(1H-indazol-4-yl)-7-methyl-1H-indole-2-carboxylic acid]	63.1 nM	39.8 nM	63100 nM			
Cc1cccc2c(-c3ccc4cn[nH]c4c3)c(C(=O)O)[nH]c12 [Example 32, 3-(1H-indazol-6-yl)-7-methyl-1H-indole-2-carboxylic acid]	25.1 nM	79.4 nM	12600 nM			
Cc1cccc2c(-c3ccc(Cn4cncn4)cc3)c(C(=O)O)[nH]c12 [Example 33, 3-(4-((1H-1,2,4-triazol-1-yl)methyl)phenyl)-7-methyl-1H-indole-2-carboxylic acid]	5.01 nM	251 nM	2000 nM			
Cc1cccc2c(-c3ccc(Cn4cccn4)cc3)c(C(=O)O)[nH]c12 [Example 34, 3-(4-((1H-pyrazol-1-yl)methyl)phenyl)-7-methyl-1H-indole-2-carboxylicacid]	10000 nM	200 nM	50.1 nM			
Cc1cccc2c(C3=CCNCC3)c(C(=O)O)[nH]c12 [Example 36, 7-methyl-3-(1,2,3,6-tetrahydropyridin-4-yl)-1H-indole-2-carboxylic acid]				398 nM	39800 nM	> 100000 nM
Cc1ccccc1-c1c(C(=O)O)[nH]c2c(C)cccc12 [Example 41, 7-methyl-3-(o-tolyl)-1H-indole-2-carboxylic acid]	316 nM	251 nM	1580 nM			
Cc1cccc2c(-c3ccc(Cl)c(C(F)(F)F)c3)c(C(=O)O)[nH]c12 [Example 43, 3-(4-chloro-3-(trifluoromethyl)phenyl)-7-methyl-1H-indole-2-carboxylic acid]	31.6 nM	158 nM	12600 nM			
Cc1cccc2c(-c3cccc(C(F)(F)F)c3)c(C(=O)O)[nH]c12 [Example 44, 7-methyl-3-(3-(trifluoromethyl)phenyl)-1H-indole-2-carboxylic acid]	31.6 nM	200 nM	3980 nM			
Cc1ccc2c(-c3ccc(S(N)(=O)=O)cc3)c(C(=O)O)[nH]c2c1 [Example 47, 6-methyl-3-(4-sulfamoylphenyl)-1H-indole-2-carboxylic acid]	398 nM	7940 nM	50100 nM			

Continued, in another order:

IC50 [1, 3]	IC50 [2, 4]	IC50 (IMP-1 (Imipenemase-1); [5])	SMILES	IC50 [1]	IC50 [2]	IC50 (IMP-1 (Imipenemase-1))
50.1 nM	398 nM	7940 nM	Cc1cccc2c(-c3ccc(OC(F)(F)F)cc3)c(C(=O)O)[nH]c12 [Example 2, 7-methyl-3-(4-(trifluoromethoxy)phenyl)-1H-indole-2-carboxylic acid]			
63.1 nM	631 nM	12600 nM	Cc1cccc2c(-c3ccncc3)c(C(=O)O)[nH]c12 [Example 4, 7-methyl-3-(pyridin-4-yl)-1H-indole-2-carboxylic acid]			
31.6 nM	100 nM	7940 nM	Cc1cccc2c(-c3ccc(C(N)=O)cc3)c(C(=O)O)[nH]c12 [Example 5, 3-(4-carbamoylphenyl)-7-methyl-1H-indole-2-carboxylic acid]			
39.8 nM	200 nM	7940 nM	Cc1cccc2c(-c3ccc(C#N)cc3)c(C(=O)O)[nH]c12 [Example 7, 3-(4-cyanophenyl)-7-methyl-1H-indole-2-carboxylic acid]			
79.4 nM	251 nM	25100 nM	Cc1cccc2c(-c3ccc([N+](=O)[O-])cc3)c(C(=O)O)[nH]c12 [Example 8, 7-methyl-3-(4-nitrophenyl)-1H-indole-2-carboxylic acid]			
50.1 nM	251 nM	7940 nM	COc1ccc(-c2c(C(=O)O)[nH]c3c(C)cccc23)cc1 [Example 9, 3-(4-methoxyphenyl)-7-methyl-1H-indole-2-carboxylic acid]			
25.1 nM	200 nM	7940 nM	Cc1cccc2c(-c3ccc(Br)cc3)c(C(=O)O)[nH]c12 [Example 10, 3-(4-bromophenyl)-7-methyl-1H-indole-2-carboxylic acid]			
31.6 nM	316 nM	12600 nM	Cc1cccc2c(-c3ccc(C(F)(F)F)cc3)c(C(=O)O)[nH]c12 [Example 11, 7-methyl-3-(4-(trifluoromethyl)phenyl)-1H-indole-2-carboxylic acid]			
20 nM	50.1 nM	2000 nM	Cc1cccc2c(-c3cccc(Br)c3)c(C(=O)O)[nH]c12 [Example 18, 3-(3-bromophenyl)-7-methyl-1H-indole-2-carboxylic acid]			
31.6 nM	1000 nM	7940 nM	Cc1cccc2c(-c3ccc(N)cc3)c(C(=O)O)[nH]c12 [Example 23, 3-(4-aminophenyl)-7-methyl-1H-indole-2-carboxylic acid]			
63.1 nM	316 nM	25100 nM	Cc1cccc2c(-c3ccccc3C#N)c(C(=O)O)[nH]c12 [Example 28, 3-(2-cyanophenyl)-7-methyl-1H-indole-2-carboxylic acid]			
5.01 nM	251 nM	794 nM	Cc1cccc2c(-c3ccc(S(=O)(=O)N(C)C)cc3)c(C(=O)O)[nH]c12 [Example 29, 3-(4-(N,N-dimethylsulfamoyl)phenyl)-7-methyl-1H-indole-2-carboxylic acid]			
20 nM	158 nM	2510 nM	CC(=O)Nc1ccc(-c2c(C(=O)O)[nH]c3c(C)cccc23)cc1 [Example 30, 3-(4-acetamidophenyl)-7-methyl-1H-indole-2-carboxylic acid]			
31.6 nM	398 nM	10000 nM	Cc1cccc2c(-c3ccccc3)c(C(=O)O)[nH]c12 [Example 37, 7-methyl-3-phenyl-1H-indole-2-carboxylate]			
15.8 nM	251 nM	1580 nM	Cc1cccc2c(-c3ccc(-c4ccccc4)cc3)c(C(=O)O)[nH]c12 [Example 40, 3-([1,1′-biphenyl]-4-yl)-7-methyl-1H-indole-2-carboxylic acid]			
15.8 nM	251 nM	10000 nM	Cc1cccc2c(-c3ccc(Cl)cc3)c(C(=O)O)[nH]c12 [Example 42, 3-(4-chlorophenyl)-7-methyl-1H-indole-2-carboxylic acid]			
31.6 nM	316 nM	3980 nM	Cc1cccc2c(-c3ccc(C4CC4)cc3)c(C(=O)O)[nH]c12 [Example 45, 3-(4-cyclopropylphenyl)-7-methyl-1H-indole-2-carboxylic acid]			
